Like-named read-outs stand apart in the source and are kept apart here.

Data set [1] concerns TMV. As to the kind of experiment: Anti-TMV activity on tobacco, curative mode. The class given is in vivo, tobacco mosaic virus. As to conditions: Tobacco mosaic virus, 100 μg/mL, tobacco; read-out: Anti-TMV activity inhibition, Curative effect.
Data set [2] deals with TMV. As to the kind of experiment: Anti-TMV activity on tobacco, induction mode (systemic acquired resistance). Type of data set: in vivo, tobacco mosaic virus. As to conditions: Tobacco mosaic virus, 100 μg/mL, read-out: Anti-TMV activity inhibition, Induction effect.
Data set [3] relates to Cercospora arachidicola. As to the kind of experiment: Fungicide activity, mycelial growth inhibition on PDA plate. Type of data set: cell-based. As to conditions: Mycosphaerella arachidis, 50 μg/mL, C. arachidicola; read-out: Fungicidal activity inhibition, CA.
The subject of data set [4] is Phytophthora infestans (Mont) de Bary. Description: microbe, parasite or virus in culture. As to conditions: Phytophthora infestans, read-out: Fungicidal activity inhibition, PI, 50 μg/mL, P. infestans (Mont.) de Bary. Type of data set: cell-based.
Data set [5] concerns Gibberella zeae. Description: microbe, parasite or virus in culture. Type of data set: cell-based. As to conditions: Fusarium graminearum, read-out: Fungicidal activity inhibition, GZ, 50 μg/mL, G. zeae.
The test system of data set [6] is Sclerotinia sclerotiorum. As to the kind of experiment: Fungicide activity, mycelial growth inhibition on PDA plate. Particulars: Sclerotinia sclerotiorum, read-out: Fungicidal activity inhibition, SS. Type of data set: cell-based.
Data set [7] relates to Rhizoctonia cerealis. The description is as above. Type of data set: cell-based. As to conditions: Ceratobasidium cereale, read-out: Fungicidal activity inhibition, RC.
Data set [8] relates to TMV. Description: Anti-TMV activity on tobacco, inactivation mode. Type of data set: in vivo, tobacco mosaic virus. As to conditions: Tobacco mosaic virus, 100 μg/mL, read-out: Anti-TMV activity inhibition, Inactivation effect.
Data set [9] concerns Alternaria solani. Description: Fungicide activity, mycelial growth inhibition on PDA plate. The class given is cell-based. Particulars: Alternaria solani, 50 μg/mL, A. solani; read-out: Fungicidal activity inhibition, AS.
The test system of data set [10] is Botrytis cinerea. Described as above. Type of data set: cell-based. Particulars: Botrytis cinerea, 50 μg/mL, B. cinerea; read-out: Fungicidal activity inhibition, BC.
Data set [11] concerns Pellicularia sasakii. The description is as above. Type of data set: cell-based. As to conditions: 50 μg/mL, P. sasakii; read-out: Fungicidal activity inhibition, PS.
The test system of data set [12] is TMV. As to the kind of experiment: Anti-TMV activity on tobacco, protection mode. As to conditions: Tobacco mosaic virus, 100 μg/mL, read-out: Anti-TMV activity inhibition, Protection effect. The class given is in vivo, tobacco mosaic virus.
Data set [13] has as its system Physalospora piricola. As to the kind of experiment: Fungicide activity, mycelial growth inhibition on PDA plate. Type of data set: cell-based. Particulars: 50 μg/mL, P. piricola; read-out: Fungicidal activity inhibition, PP.

In general, melting point refers to the temperature, or range, at which the solid turns liquid. `CO/N=C(/C(=O)NC(C)(C)CSC)c1ccccc1CO/N=C(\N)c1snc(Cl)c1Cl` [CL04-25D] returned a melting point of 28 to 30 °C. Besides, the inhibition at 100 µg/mL in data set [1] is greater than 30%. The inhibition at 100 µg/mL in [2] is 21.1 ± 3.69%. For the same compound, the inhibition at 50 µg/mL in [3] worked out at 12.5%. Further, in data set [4], the inhibition at 50 µg/mL came out at 17.1%. Besides, the inhibition at 50 µg/mL in [5] is 21.2%. For the same compound, the inhibition at 50 µg/mL in data set [6] (50 μg/mL, S. sclerotiorum) came out at 52.9%. Also, in [6], the inhibition at 50 µg/mL was greater than 40%. Further, the inhibition at 50 µg/mL in data set [7] (50 μg/mL, R. cerealis) was 62%. Also, in data set [8], the inhibition at 100 µg/mL is 0%. Also, the inhibition at 50 µg/mL in [9] was found to be 16.4%. In addition, the inhibition at 50 µg/mL in data set [10] was 39.3%. For the same compound, in [11], the inhibition at 50 µg/mL was determined as 15.2%. In addition, in data set [12], the inhibition at 100 µg/mL worked out at 21.1 ± 1.69%. For the same compound, the inhibition at 50 µg/mL in data set [13] amounted to 27.7%.

Consider `CO/N=C(/C(=O)NCC(F)F)c1ccccc1CO/N=C(\N)c1snc(Cl)c1Cl` [CL04-24], for which the melting point lay within 118 to 120 °C. In addition, the inhibition at 100 µg/mL in data set [1] was determined as 15 ± 3.08%. For the same compound, the inhibition at 100 µg/mL in data set [2] is greater than 30%. The inhibition at 50 µg/mL in data set [3] came to 16.7%. Also, in data set [4], the inhibition at 50 µg/mL was 22.9%. Also, the inhibition at 50 µg/mL in data set [5] was greater than 30%. In addition, the inhibition at 50 µg/mL in [6] (50 μg/mL, S. sclerotiorum) was 52.9%. Besides, the inhibition at 50 µg/mL in data set [7] (50 μg/mL, R. cerealis) is 62%. In addition, in data set [7], the inhibition at 50 µg/mL was greater than 50%. For the same compound, the inhibition at 100 µg/mL in data set [8] came to 27.3 ± 6.56%. For the same compound, in [9], the inhibition at 50 µg/mL was found to be 12.7%. Moreover, the inhibition at 50 µg/mL in data set [10] is 37.5%. In addition, in data set [11], the inhibition at 50 µg/mL was found to be 24.2%. For the same compound, in [12], the inhibition at 100 µg/mL turned out to be 36.8 ± 5.5%. Moreover, in data set [13], the inhibition at 50 µg/mL was 39.5%.

For the origin of these results see patent US10906880B2, “Kind of isothiazole oxime ether-containing strobilurin derivatives and its preparation methods and application” (priority 2016, dated 2021).
